Where two headings read alike, the source gives them in different places.

Consider 11 compounds from patent EP4806446A2.

For this data set the following is noted: ester bond, DCM.

The compound `C=C[C@@H]1CCN2N[C@@H]1C(=O)OCC(C)(C)Cc1c(-c3cc(N4CCN(C(=O)OCc5ccccc5)CC4)cnc3[C@H](C)OC)n(CC)c3ccc(cc13)-c1csc(n1)C[C@H](NC(=O)OC(C)(C)C)C2=O` displayed a ring closure, yield of all isomers (from C=C[C@@H]1CCN(C(=O)[C@H](Cc2nc(-c3ccc4c(c3)c(CC(C)(C)CO)c(-c3cc(N5CCN(C(=O)OCc6ccccc6)CC5)cnc3[C@H](C)OC)n4CC)cs2)NC(=O)OC(C)(C)C)N[C@@H]1C(=O)O, EDCI/HOBt/DIEA, 10.0 mM, 25.0 °C, 16.0 h) of 36.7%. In turn, `CCn1c(-c2cc(N3CCN(C4CC4)CC3)cnc2[C@H](C)OC)c2c3cc(ccc31)-c1csc(n1)C[C@H](NC(=O)OC(C)(C)C)C(=O)N(C)NCC(=O)OCC(C)(C)C2` registered a ring closure, yield of all isomers (from CCn1c(-c2cc(N3CCN(C4CC4)CC3)cnc2[C@H](C)OC)c(CC(C)(C)CO)c2cc(-c3csc(C[C@H](NC(=O)OC(C)(C)C)C(=O)N(C)NCC(=O)O)n3)ccc21, PyBOP/DMAP, 5.9 mM, 0.0 °C, 1.0 h) of 27%. For the compound `CCn1c(-c2cc(N3CCN(C4CC4)CC3)cnc2[C@H](C)OC)c2c3cc(ccc31)-c1nnc(o1)C[C@H](NC(=O)OCc1ccccc1)C(=O)N1N[C@H](C(=O)OCC(C)(C)C2)C2CC1C2`, under “from CCn1c(-c2cc(N3CCN(C4CC4)CC3)cnc2[C@H](C)OC)c(CC(C)(C)CO)c2cc(-c3nnc(C[C@H](NC(=O)OCc4ccccc4)C(=O)N4N[C@H](C(=O)O)C5CC4C5)o3)ccc21, PyBOP, DMAP, 6.64 mM, 25.0 °C, 16.0 h, 2 steps”, the ring closure, yield of all isomers stood at 29%.

`CCn1c(-c2cccnc2[C@H](C)OC)c2c3cc(ccc31)N1CCO[C@@H](C[C@H](NC(=O)OC(C)(C)C)C(=O)N(C)NCC(=O)OCC(C)(C)C2)C1` registered a ring closure, yield of all isomers (from CCn1c(-c2cccnc2[C@H](C)OC)c(CC(C)(C)CO)c2cc(N3CCO[C@@H](C[C@H](NC(=O)OC(C)(C)C)C(=O)N(C)NCC(=O)O)C3)ccc21, EDCI/HOBt, DIEA, 6.5 mM, 25.0 °C, 16.0 h) of 44%. The compound `CCn1c(-c2cc(N3CCN(C)CC3)cnc2[C@H](C)OC)c2c3cc(ccc31)-c1csc(n1)C[C@H](NC(=O)OC(C)(C)C)C(=O)N1N[C@H](C(=O)OCC(C)(C)C2)C2CC1C2` showed a ring closure, yield of all isomers (from CCn1c(-c2cc(N3CCN(C)CC3)cnc2[C@H](C)OC)c(CC(C)(C)CO)c2cc(-c3csc(C[C@H](NC(=O)OC(C)(C)C)C(=O)N4N[C@H](C(=O)O)C5CC4C5)n3)ccc21, PyBOP/DMAP, 5.8 mM, 25.0 °C, 5.0 h) of 48.8%.

In turn, `CCn1c(-c2cccnc2[C@H](C)OC)c2c3cc(ccc31)N1CCO[C@@H](C[C@H](NC(=O)OC(C)(C)C)C(=O)N3N[C@H](C(=O)OCC(C)(C)C2)C2CC3C2)C1` yielded a ring closure, yield of all isomers (from CCn1c(-c2cccnc2[C@H](C)OC)c(CC(C)(C)CO)c2cc(N3CCO[C@@H](C[C@H](NC(=O)OC(C)(C)C)C(=O)N4N[C@H](C(=O)O)C5CC4C5)C3)ccc21, PyBOP, DMAP, 2.6 mM, 25.0 °C, 16.0 h) of 96.2%. As to `CCn1c(-c2cc(N3CCN(C(=O)OCc4ccccc4)CC3)cnc2[C@H](C)OC)c2c3cc(ccc31)N1CCO[C@@H](C[C@H](NC(=O)OC(C)(C)C)C(=O)N3N[C@H](C(=O)OCC(C)(C)C2)C2CC3C2)C1`, the ring closure, yield of all isomers (from CCn1c(-c2cc(N3CCN(C(=O)OCc4ccccc4)CC3)cnc2[C@H](C)OC)c(CC(C)(C)CO)c2cc(N3CCO[C@@H](C[C@H](NC(=O)OC(C)(C)C)C(=O)N4N[C@H](C(=O)O)C5CC4C5)C3)ccc21, PyBOP/DMAP, 9.8 mM, 35.0 °C, 0.5 h) is 16%. For the setting “from CCn1c(-c2cc(N3CCN(C(=O)OCc4ccccc4)CC3)cnc2[C@H](C)OC)c(CC(C)(C)CO)c2cc(-c3cccc(C[C@H](NC(=O)OC(C)(C)C)C(=O)N4N[C@H](C(=O)O)C5CC4C5)c3)ccc21, EDCI/HOBt/DIEA, 6.0 mM, 25.0 °C, 16.0 h”, `CCn1c(-c2cc(N3CCN(C(=O)OCc4ccccc4)CC3)cnc2[C@H](C)OC)c2c3cc(ccc31)-c1cccc(c1)C[C@H](NC(=O)OC(C)(C)C)C(=O)N1N[C@H](C(=O)OCC(C)(C)C2)C2CC1C2` showed a ring closure, yield of all isomers of 27%. For `CCn1c(-c2cc(N3CCN(C(=O)OCc4ccccc4)CC3)cnc2[C@H](C)OC)c2c3cc(ccc31)-c1csc(n1)C[C@H](NC(=O)OC(C)(C)C)C(=O)N1N[C@@H](C(=O)OCC(C)(C)C2)C2CC1C2`, the ring closure, yield of all isomers (from CCn1c(-c2cc(N3CCN(C(=O)OCc4ccccc4)CC3)cnc2[C@H](C)OC)c(CC(C)(C)CO)c2cc(-c3csc(C[C@H](NC(=O)OC(C)(C)C)C(=O)N4N[C@@H](C(=O)O)C5CC4C5)n3)ccc21, EDCI/HOBt/DIEA, 5.2 mM, 35.0 °C) was 49%. Consider `CCn1c(-c2cc(N3CCN(C)CC3)cnc2[C@H](C)OC)c2c3cc(ccc31)-c1csc(n1)C[C@H](NC(=O)OC(C)(C)C)C(=O)N(C)NCC(=O)OCC(C)(C)C2`, for which the ring closure, yield of all isomers (from CCn1c(-c2cc(N3CCN(C)CC3)cnc2[C@H](C)OC)c(CC(C)(C)CO)c2cc(-c3csc(C[C@H](NC(=O)OC(C)(C)C)C(=O)N(C)NCC(=O)O)n3)ccc21, PyBOP/DMAP, 0.81 mM, 0.0 °C, 1.0 h) is 42%. In turn, `CCn1c(-c2cc(N3CCN(C(=O)OCc4ccccc4)CC3)cnc2[C@H](C)OC)c2c3cc(ccc31)-c1csc(n1)C[C@H](NC(=O)OC(C)(C)C)C(=O)N(C)NCC(=O)OCC(C)(C)C2` had a ring closure, yield of all isomers (from CCn1c(-c2cc(N3CCN(C(=O)OCc4ccccc4)CC3)cnc2[C@H](C)OC)c(CC(C)(C)CO)c2cc(-c3csc(C[C@H](NC(=O)OC(C)(C)C)C(=O)N(C)NCC(=O)O)n3)ccc21, EDCI/HOBt/DIEA, 4.25 mM, 25.0 °C, 16.0 h) of 38.2%.
